# In ChEMBL document CHEMBL1124630, “Fluoronaphthyridines and quinolones as antibacterial agents. 1. Synthesis and structure-activity relationships of new 1-substituted derivatives” (J Med Chem, 1989):
# Tests used:
# Escherichia coli [1] = experiment: In vitro antibacterial activity against Escherichia coli (A 15119); assay type: functional
# Enterobacter cloacae = experiment: In vitro antibacterial activity against Enterobacter cloacae (A 9656); assay type: functional
# Klebsiella pneumoniae [2] = experiment: In vitro antibacterial activity against Klebsiella pneumoniae (A 9664); assay type: functional
# Morganella morganii = experiment: In vitro antibacterial activity against Morganella morganii (A 15153); assay type: functional
# Pseudomonas aeruginosa [3] = experiment: In vitro antibacterial activity against Pseudomonas aeruginosa (A 9843); assay type: functional
# Staphylococcus aureus [4] = experiment: In vitro antibacterial activity against Staphylococcus aureus Smith (A9537); assay type: functional
# Escherichia coli [5] = experiment: In vivo efficacy in systemic infection due to Escherichia coli (A 15119) in mice; assay type: functional; details: read-out: PD50
# Klebsiella pneumoniae [6] = experiment: In vivo efficacy in systemic infection due to Klebsiella pneumoniae (A 9664) in mice; assay type: functional; details: read-out: PD50
# Pseudomonas aeruginosa [7] = experiment: In vivo efficacy in systemic infection due to Pseudomonas aeruginosa (A 9843) in mice; assay type: functional; details: read-out: PD50
# Staphylococcus aureus [8] = experiment: In vivo efficacy in systemic infection due to Staphylococcus aureus Smith (A 9537) in mice; assay type: functional; details: read-out: PD50
# Canis familiaris = experiment: Area under the concentration/ time in plasma after oral administration in dog (25 mg/kg); assay type: ADME, organism-based, Canis lupus familiaris; details: in vivo
# [9] = Maximum concentration in plasma after oral administration in dog (25 mg/kg); assay type: ADME, organism-based, Canis lupus familiaris; parameters: dose 25 mg/kg, route oral
# [10] = Urinary recovery after 24 hr in plasma after oral administration in dog (25 mg/kg); assay type: ADME, organism-based, Canis lupus familiaris; details: urine, read-out: UR
# [11] = Lethal dose of compound in OF1-strain female swiss mice after oral administration; assay type: toxicity, organism-based; details: mouse, in vivo
# [12] = Escherichia coli, read-out: MIC
# [13] = Enterobacter cloacae, read-out: MIC
# [14] = Klebsiella pneumoniae, read-out: MIC
# [15] = Morganella morganii, read-out: MIC
# [16] = Pseudomonas aeruginosa, read-out: MIC
# [17] = Staphylococcus aureus, read-out: MIC
SMILES,MIC (Escherichia coli [1]; [12]) [µg/mL],MIC (Enterobacter cloacae; [13]) [µg/mL],MIC (Klebsiella pneumoniae [2]; [14]) [µg/mL],MIC (Pseudomonas aeruginosa [3]; [16]) [µg/mL],MIC (Staphylococcus aureus [4]; [17]) [µg/mL],MIC (Morganella morganii; [15]) [µg/mL],other results
CC(C)(C)n1cc(C(=O)O)c(=O)c2cc(F)c(N3CCNCC3)c(F)c21,0.06,0.25,0.25,4,0.25,0.5,
O=C(O)c1cn(CC2CC2)c2cc(N3CCNCC3)c(F)cc2c1=O,0.5,4,2,4,1,1,
O=C(O)c1cn(C2CC2)c2nc(N3CCNCC3)c(F)cc2c1=O,0.06,0.06,0.06,0.06,0.25,0.06,ED50 (Escherichia coli [5]): 0.5 mg/kg; ED50 (Klebsiella pneumoniae [6]): 2.2 mg/kg; ED50 (Pseudomonas aeruginosa [7]): 3.6 mg/kg; ED50 (Staphylococcus aureus [8]): 6.7 mg/kg
CC1CC1n1cc(C(=O)O)c(=O)c2cc(F)c(N3CCNCC3)cc21 (stereo in doubt; 12),,,,,,,MIC (Escherichia coli [1]): 0.06 µg/mL; MIC (Enterobacter cloacae): 0.13 µg/mL; MIC (Klebsiella pneumoniae [2]): 2 µg/mL; MIC (Morganella morganii): 1 µg/mL; MIC (Pseudomonas aeruginosa [3]): 2 µg/mL; MIC (Staphylococcus aureus [4]): 1 µg/mL
CC1CC1n1cc(C(=O)O)c(=O)c2cc(F)c(N3CCNCC3)cc21 (stereo in doubt; 13),,,1,1,,,MIC (Escherichia coli [1]): 0.13 µg/mL; MIC (Enterobacter cloacae): 0.5 µg/mL; MIC (Morganella morganii): 0.25 µg/mL; MIC (Staphylococcus aureus [4]): 0.13 µg/mL
O=C(O)c1cn(C2CC2)c2cc(N3CCNCC3)c(F)cc2c1=O [CIPROFLOXACIN],,,0.03,0.13,0.13,0.015,AUC (Canis familiaris): 20 µg/mL; Cmax [9]: 3000 ng/mL; dose excreted at 24 h [10]: 17%; ED50 (Escherichia coli [5]): 0.7 mg/kg; ED50 (Klebsiella pneumoniae [6]): 1.5 mg/kg; ED50 (Pseudomonas aeruginosa [7]): 5 mg/kg; ED50 (Staphylococcus aureus [8]): 4 mg/kg
CCn1cc(C(=O)O)c(=O)c2cc(F)c(N3CCNCC3)cc21 [NORFLOXACIN],0.13,0.06,0.03,0.5,0.25,0.015,ED50 (Escherichia coli [5]): 3 mg/kg; ED50 (Klebsiella pneumoniae [6]): 8 mg/kg; LD50 [11]: > 2500 mg/kg; ED50 (Pseudomonas aeruginosa [7]): 16 mg/kg; ED50 (Staphylococcus aureus [8]): 10 mg/kg

# Continued, in another order:
MIC (Escherichia coli [1]; [12]) [µg/mL],MIC (Enterobacter cloacae; [13]) [µg/mL],MIC (Klebsiella pneumoniae [2]; [14]) [µg/mL],MIC (Pseudomonas aeruginosa [3]; [16]) [µg/mL],MIC (Staphylococcus aureus [4]; [17]) [µg/mL],SMILES,MIC (Morganella morganii; [15]) [µg/mL],other results
0.13,0.25,0.25,4,0.13,O=C(O)c1cn(C2(c3ccccc3)CC2)c2cc(N3CCNCC3)c(F)cc2c1=O,0.25,
2,4,4,32,4,CC(c1ccccc1)n1cc(C(=O)O)c(=O)c2cc(F)c(N3CCNCC3)cc21 (centres undefined),16,
2,4,8,63,8,O=C(O)c1cn(C23CC4CC(CC(C4)C2)C3)c2cc(N3CCNCC3)c(F)cc2c1=O,32,
0.25,0.5,1,4,2,CC(C)n1cc(C(=O)O)c(=O)c2cc(F)c(N3CCNCC3)nc21,1,
0.05,,0.1,0.39,0.39,O=C(O)c1cn(-c2ccc(F)cc2)c2nc(N3CCNCC3)c(F)cc2c1=O,,
0.13,0.5,0.5,0.5,0.25,CCn1cc(C(=O)O)c(=O)c2cc(F)c(N3CCNCC3)nc21 [ENOXACIN],0.13,
0.05,,0.02,0.39,0.2,O=C(O)c1cn(-c2ccc(F)cc2)c2cc(N3CCNCC3)c(F)cc2c1=O [SARAFLOXACIN],,
